Molecules are shown by their SMILES. Numbers after ± are expanded uncertainties.

The nature of data set [1]: refractive index (Na D-line) (dimensionless). Particulars: 101 kPa, Liquid, Standard Abbe refractometry.
Data set [2] can be described thus: relative permittivity at various frequencies (dimensionless). The following applies: 101 kPa, Liquid, Frequency=1 MHz, Parallel plate capacitor.
For data set [3] the following is noted: 101 kPa, Liquid, Vibrating tube method.
Data set [4] can be described thus: refractive index (Na D-line) (dimensionless); xn = mol fraction of the nth substance listed. The following applies: 101 kPa, Liquid, Standard Abbe refractometry, x1 = 1.
A short description of data set [5]: relative permittivity at various frequencies (dimensionless); xn = mol fraction of the nth substance listed. The following applies: 101 kPa, Liquid, Frequency=1 MHz, Parallel plate capacitor, x1 = 1.

For `CCCCCCCO` [heptan-1-ol], the refractive index (as a rule, the speed of light in vacuum divided by its phase velocity in the sample) in data set [1] (293.15 K) turned out to be 1.42425 ± 0.00033; in data set [1] (298.15 K) it was 1.42235 ± 0.00033; in data set [1] (303.15 K), 1.42047 ± 0.00033. The relative permittivity in data set [2] (293.15 K) was 12.019 ± 0.6; in data set [2] (298.15 K), 11.504 ± 0.59; in data set [2] (303.15 K) it was 11.014 ± 0.57. Further, the mass density – broadly, the mass of a sample divided by its volume – was found to be 822.37 ± 2 kg/m3 in data set [3] (293.15 K), 818.9 ± 2 kg/m3 in data set [3] (298.15 K) and 815.37 ± 2 kg/m3 in data set [3] (303.15 K).
As for `CCCCCO` [pentan-1-ol], the refractive index in data set [1] (293.15 K) is on record as 1.40985 ± 0.00033; in data set [1] (298.15 K), 1.40793 ± 0.00033; in data set [1] (303.15 K), 1.4059 ± 0.00033. Also, the relative permittivity in data set [2] (293.15 K) is given as 15.701 ± 0.68; in data set [2] (298.15 K) it was 15.102 ± 0.67; in data set [2] (303.15 K), 14.536 ± 0.65. Moreover, the mass density in data set [3] (293.15 K) came to 814.66 ± 2 kg/m3; in data set [3] (298.15 K), 811.03 ± 1.9 kg/m3; in data set [3] (303.15 K), 807.35 ± 1.9 kg/m3.
As for `CCCCO` [butan-1-ol], the refractive index was 1.39931 ± 0.00033 in data set [1] (293.15 K), 1.39733 ± 0.00033 in data set [1] (298.15 K) and 1.39529 ± 0.00033 in data set [1] (303.15 K). The relative permittivity came to 18.192 ± 0.73 in data set [2] (293.15 K), 17.545 ± 0.71 in data set [2] (298.15 K) and 16.933 ± 0.7 in data set [2] (303.15 K). Also, the mass density was 809.85 ± 1.9 kg/m3 in data set [3] (293.15 K), 806.06 ± 1.9 kg/m3 in data set [3] (298.15 K) and 802.22 ± 1.9 kg/m3 in data set [3] (303.15 K).
`CCCO` [propan-1-ol] + CCCCCCN: the figures for the refractive index in data set [4] (293.15 K), in data set [4] (298.15 K) and in data set [4] (303.15 K) were 1.38514 ± 0.00033, 1.38306 ± 0.00033 and 1.38102 ± 0.00033, respectively. Moreover, the values for the relative permittivity in data set [5] (293.15 K), in data set [5] (298.15 K) and in data set [5] (303.15 K) were 21.15 ± 0.78, 20.449 ± 0.77 and 19.784 ± 0.76, respectively.
Regarding `CCCCCO` [pentan-1-ol] + CCCCCCN, the refractive index in data set [4] (293.15 K) was 1.40985 ± 0.00033; in data set [4] (298.15 K) it was 1.40793 ± 0.00033; in data set [4] (303.15 K) it was 1.4059 ± 0.00033. Moreover, the figures for the relative permittivity in data set [5] (293.15 K), in data set [5] (298.15 K) and in data set [5] (303.15 K) were 15.701 ± 0.68, 15.102 ± 0.67 and 14.536 ± 0.65, respectively.
As to `CO` [methanol], the refractive index in data set [1] (293.15 K) amounted to 1.32862 ± 0.00033; in data set [1] (298.15 K), 1.32654 ± 0.00033; in data set [1] (303.15 K), 1.32439 ± 0.00033. For the same compound, the relative permittivity in data set [2] (293.15 K) worked out at 33.569 ± 0.97; in data set [2] (298.15 K), 32.619 ± 0.96; in data set [2] (303.15 K) it was 31.652 ± 0.95. In addition, the mass density in data set [3] (293.15 K) was 791.63 ± 1.9 kg/m3; in data set [3] (298.15 K), 786.95 ± 1.9 kg/m3; in data set [3] (303.15 K), 782.22 ± 1.9 kg/m3.
Regarding `CCCCCCCO` [heptan-1-ol] + CCCCCCN, the refractive index in data set [4] (293.15 K) is listed as 1.42425 ± 0.00033; in data set [4] (298.15 K), 1.42235 ± 0.00033; in data set [4] (303.15 K), 1.42047 ± 0.00033. For the same compound, the figures for the relative permittivity in data set [5] (293.15 K), in data set [5] (298.15 K) and in data set [5] (303.15 K) were 12.019 ± 0.6, 11.504 ± 0.59 and 11.014 ± 0.57, respectively.
As for `CCCCO` [butan-1-ol] + CCCCCCN, the refractive index in data set [4] (293.15 K) is 1.39931 ± 0.00033; in data set [4] (298.15 K) it was 1.39733 ± 0.00033; in data set [4] (303.15 K), 1.39529 ± 0.00033. Further, the results for the relative permittivity in data set [5] (293.15 K), in data set [5] (298.15 K) and in data set [5] (303.15 K) were 18.192 ± 0.73, 17.545 ± 0.71 and 16.933 ± 0.7, respectively.
Turning to `CO` [methanol] + CCCCCCN, the refractive index stood at 1.32862 ± 0.00033 in data set [4] (293.15 K), 1.32654 ± 0.00033 in data set [4] (298.15 K) and 1.32439 ± 0.00033 in data set [4] (303.15 K). Besides, the relative permittivity was 33.569 ± 0.97 in data set [5] (293.15 K), 32.619 ± 0.96 in data set [5] (298.15 K) and 33.569 ± 0.97 in data set [5] (303.15 K).
Regarding `CCCO` [propan-1-ol], the refractive index is on record as 1.38514 ± 0.00033 in data set [1] (293.15 K), 1.38306 ± 0.00033 in data set [1] (298.15 K) and 1.38102 ± 0.00033 in data set [1] (303.15 K). Further, the relative permittivity in data set [2] (293.15 K) came out at 21.15 ± 0.78; in data set [2] (298.15 K), 20.449 ± 0.77; in data set [2] (303.15 K), 19.784 ± 0.76. Also, the mass density in data set [3] (293.15 K) is given as 803.66 ± 1.9 kg/m3; in data set [3] (298.15 K), 799.68 ± 1.9 kg/m3; in data set [3] (303.15 K), 795.66 ± 1.9 kg/m3.
In the case of `CCCCCCN` [1-hexanamine], the refractive index in data set [1] (293.15 K) came to 1.41808 ± 0.00033; in data set [1] (298.15 K), 1.41563 ± 0.00033; in data set [1] (303.15 K), 1.41321 ± 0.00033. Moreover, the relative permittivity came to 3.964 ± 0.37 in data set [2] (293.15 K), 3.904 ± 0.37 in data set [2] (298.15 K) and 3.846 ± 0.36 in data set [2] (303.15 K). For the same compound, the mass density in data set [3] (293.15 K) was found to be 764.43 ± 1.8 kg/m3; in data set [3] (298.15 K), 760.19 ± 1.8 kg/m3; in data set [3] (303.15 K), 755.9 ± 1.8 kg/m3.

For the origin of these results see the NIST ThermoML archive (doi:10.1016/j.fluid.2018.04.007).
